In general, MIC refers to the lowest concentration that inhibits growth of the organism.

In brackets after ≈: the same amount, converted by molar mass. Where two headings read alike, the source gives them in different places.

The values that follow come from US12030912B2, “Cationic steroidal antimicrobial compounds with urethane linkages” (Brigham Young University, priority 2020, dated 2024).

The subject of test [1] is Pseudomonas aeruginosa (PA01 47085). As to the kind of experiment: Minimum inhibitory concentration (MIC), antimicrobial activity. To be noted: Pathogen PA01 47085. In kind it is cell-based. The protocol: (§1) The antimicrobial activity of CSA-255 was determined in comparison to CSA-44, a CSA compound known to have very high antimicrobial activity compared to other CSAs. The microbes used in the comparative test was were methicillin resistant Staphylococcus aureus (MRSA) BAA-41 and Pseudomonas aeruginosa (PA01 47085).

Test [2] relates to methicillin resistant Staphylococcus aureus (MRSA) BAA-41. Described as above. To be noted: Pathogen MRSA BAA-41. It counts as cell-based. The method, then:
as §1

Consider `CCCCCCCCNC(=O)CC[C@@H](C)[C@H]1CC[C@H]2[C@@H]3[C@H](OC(=O)NCCN)C[C@@H]4C[C@H](OC(=O)NCCN)CC[C@]4(C)[C@H]3C[C@H](OC(=O)NCCN)[C@]12C` [CSA-255], for which the MIC in test [1] (Pseudomonas aeruginosa, read-out: MIC) came to 2 µg/mL (≈ 2.57 µM); in test [2] (Staphylococcus aureus, read-out: MIC), 4 µg/mL (≈ 5.14 µM).
Turning to `CCCCCCCCOC(=O)CC[C@@H](C)[C@H]1CC[C@H]2[C@@H]3[C@H](OC(=O)CCN)C[C@@H]4C[C@H](OC(=O)CCN)CC[C@]4(C)[C@H]3C[C@H](OC(=O)CCN)[C@]12C` [CSA-44], the MIC in test [1] and in test [2] was 2 µg/mL (≈ 2.72 µM) throughout.
